What was measured:
[1] = Determination of the critical aggregation concentration (CAC), DPH fluorescence assay; assay type: physicochemical; conditions: excitation 359 nm, emission 428 nm, peptide in double-distilled water cleared with NaOH, aged 1 week, intersection of two fitted straight lines
Description: (§1) Lyophilized peptides were dissolved in double-distilled water. NaOH (1 or 0.1 M) was added stepwise until the samples appeared as clear, colorless solutions. Stock solutions (50 mM) were then diluted with double-distilled water to obtain the desired concentrations. All samples were aged for 1 week under an argon atmosphere prior to fluorescence, SAXS, TEM, and attenuated total reflection Fourier transform infrared (ATR-FTIR) spectroscopy measurements.
A 4 μL portion of DPH in methanol (10 μM) was added to 50 μL of peptide solution of varying concentrations. All fluorescence spectra were recorded under identical conditions on a CLARIOstar microplate reader (BMG LABTECH, Ortenberg, Germany) with an excitation wavelength of 359 nm. Fluorescence emission was recorded at 428 nm. Samples were background corrected and normalized to the highest intensity readout. DPH is almost nonfluorescent in aqueous solutions and in the presence of randomly oriented peptide monomers. As soon as oriented structures are formed, a sharp increase in fluorescence intensity is observed. The CAC of the peptide is defined as the intersection point of two straight lines, fitting the low intensity region and the region with linearly increasing intensity.[18]

[2] = TEM of peptide assemblies (negative staining, cryo); assay type: physicochemical
Description: as §1
Solutions of A6YD and V4WD2 (11 mM) were incubated for 1 week prior to TEM measurements. Samples were adsorbed onto a glow-discharged carbon-coated copper grid and allowed to settle for 1 min. Excess fluid was carefully removed with filter paper and immediately replaced by 5 μL of a 2% (w/v) uranyl acetate staining solution, which was centrifuged for 6 min at 10000 rpm prior to usage in order to precipitate potentially present aggregates. The uranyl acetate solution was allowed to settle for 30 s, blotted, and replaced by another 5 μL of fresh solution. After 30 s of incubation, the staining solution was removed and the sample was air-dried. Visualization of the samples was achieved by using a Fei Tecnai G^2 20 transmission electron microscope (Eindhoven, The Netherlands) operating at an acceleration voltage of 120 kV. Digital images were made using a Gatan US1000 CCD camera at 2K × 2K resolution.

[3] = Differential scanning calorimetry (DSC) on DPPC MLVs; conditions: as evidenced by DSC, EPR, and SAXS
Description: DPPC was dissolved in chloroform/methanol (2:1 v/v), mixed, and organic solvents were evaporated under a gentle stream of nitrogen, followed by drying under a vacuum overnight in order to completely remove residual organic solvents. The dry lipid-film was hydrated either by adding double-distilled water (reference) or by adding aqueous solutions of the peptides to finally obtain four different molar ratios: 50:1, 25:1, 10:1, and 5:1 DPPC/peptide (mol/mol). These ratios correspond to peptide concentrations of 1.1, 2.2, 5.5, and 11 mM, respectively. The DPPC concentration was 55 mM. The samples were incubated above the lipid’s phase transition temperature at 50 °C for 2 h, intermitted by vigorous vortexing every 15 min.
DPPC MLVs in the presence and absence of peptides were prepared as described above, incubated for 24 h at room temperature (gently rotating), and diluted with double-distilled water to 2.75 mM DPPC prior to measurements to fit the optimal concentration regime for DSC. Measurements were performed on a Microcal VP-DSC differential scanning calorimeter (Northampton, MA, USA). Scans were recorded at a constant scan rate of 0.5 °C/min from 10 to 80 °C. […] The sharpness of the transition was described by the full width at half-maximum (ΔT1/2), and calorimetric enthalpies (ΔH) were calculated by integrating the peak areas.

[4] = not given; remark: listed apart in the source

| Substance | ∼CAC (critical aggregation concentration) [1] | diameter of supramolecular cylinders (TEM, both techniques) ([2]; above the CAC, Fig. S11) | fiber diameter, cryo-TEM ([2]; cryogenic conditions) | nanofiber diameter, negative-staining TEM ([2]; negative staining with 2% uranyl acetate, peptide aged 1 week) | interaction with DPPC MLVs [3] | hard sphere radius (Rs) | peptide fiber diameter in presence of LDL [4] |
| --- | --- | --- | --- | --- | --- | --- | --- |
| Ac-AAAAAAYK-NH2 [A6YK] | ~1 mM | 4- 12 nm | 8–12 nm | 4–10 nm | no interaction |  |  |
| Ac-AAAAAAYD-OH |  |  |  |  |  | 2.6 nm | 10 nm |

From PMC5111122, “Peptides at the Interface: Self-Assembly of Amphiphilic Designer Peptides and Their Membrane Interaction Propensity” (Biomacromolecules, 2016)
